Experimental findings from ChEMBL document CHEMBL1667792, “DNA-dependent protein kinase (DNA-PK) inhibitors: structure-activity relationships for O-alkoxyphenylchromen-4-one probes of the ATP-binding domain” (Bioorg Med Chem Lett, 2011) are described below.

Molecules are shown by their SMILES. Bounds are passed on as bounds.

For experiment [1], the target named is DNA-dependent protein kinase catalytic subunit (Homo sapiens, UniProt P78527).
Experiment [2] deals with Phosphatidylinositol 4,5-bisphosphate 3-kinase catalytic subunit alpha isoform (Homo sapiens, UniProt P42336). The experiment in a line: Inhibition of PI3Kalpha after 80 mins.
Experiment [3] concerns HeLa. The experiment in a line: Potentiation of ionising radiation-induced DNA damaging activity in human HeLa cells assessed as dose modification ratio at 0.5 uM treated 1 hr before ionising radiation challenge followed by washout measured after 6 to 8 days by Giemsa staining. It is filed as functional.
Experiment [4] has as its system HeLa. In words: Potentiation of ionising radiation-induced DNA damaging activity in human HeLa cells assessed as dose modification ratio at 0.1 uM treated 1 hr before ionising radiation challenge followed by washout measured after 6 to 8 days by Giemsa staining. It is filed as functional.

Chain of Phosphatidylinositol 4,5-bisphosphate 3-kinase catalytic subunit alpha isoform (P42336 whole entry, canonical isoform): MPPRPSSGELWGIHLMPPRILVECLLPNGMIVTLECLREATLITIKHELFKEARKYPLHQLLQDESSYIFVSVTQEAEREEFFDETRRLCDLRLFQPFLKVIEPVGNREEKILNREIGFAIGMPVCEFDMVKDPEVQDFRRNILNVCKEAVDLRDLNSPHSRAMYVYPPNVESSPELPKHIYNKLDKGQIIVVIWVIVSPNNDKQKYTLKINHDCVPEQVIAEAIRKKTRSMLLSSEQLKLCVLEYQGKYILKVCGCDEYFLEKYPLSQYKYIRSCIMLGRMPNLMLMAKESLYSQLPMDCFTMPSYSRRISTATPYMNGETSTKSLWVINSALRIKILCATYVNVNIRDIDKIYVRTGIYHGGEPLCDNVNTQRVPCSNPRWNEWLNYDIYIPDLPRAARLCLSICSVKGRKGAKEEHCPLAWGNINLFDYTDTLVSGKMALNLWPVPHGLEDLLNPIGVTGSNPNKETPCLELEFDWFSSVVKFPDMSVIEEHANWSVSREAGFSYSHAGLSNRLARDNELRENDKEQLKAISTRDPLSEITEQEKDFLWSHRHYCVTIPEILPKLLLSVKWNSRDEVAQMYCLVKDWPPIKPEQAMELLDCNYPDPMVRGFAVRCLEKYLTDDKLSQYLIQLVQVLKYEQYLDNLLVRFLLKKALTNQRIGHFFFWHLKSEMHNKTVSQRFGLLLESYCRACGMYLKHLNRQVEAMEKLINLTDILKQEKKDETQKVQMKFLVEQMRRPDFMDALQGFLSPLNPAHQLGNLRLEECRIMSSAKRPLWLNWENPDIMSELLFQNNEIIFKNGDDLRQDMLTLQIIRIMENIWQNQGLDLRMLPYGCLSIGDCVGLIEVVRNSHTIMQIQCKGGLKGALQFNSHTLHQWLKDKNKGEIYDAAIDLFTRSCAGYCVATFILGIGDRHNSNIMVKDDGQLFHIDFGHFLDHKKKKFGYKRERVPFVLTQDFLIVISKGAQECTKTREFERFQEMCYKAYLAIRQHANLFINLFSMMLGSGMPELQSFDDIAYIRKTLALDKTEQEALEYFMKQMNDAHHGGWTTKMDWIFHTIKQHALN
Chain of DNA-dependent protein kinase catalytic subunit (P78527 whole entry, canonical isoform): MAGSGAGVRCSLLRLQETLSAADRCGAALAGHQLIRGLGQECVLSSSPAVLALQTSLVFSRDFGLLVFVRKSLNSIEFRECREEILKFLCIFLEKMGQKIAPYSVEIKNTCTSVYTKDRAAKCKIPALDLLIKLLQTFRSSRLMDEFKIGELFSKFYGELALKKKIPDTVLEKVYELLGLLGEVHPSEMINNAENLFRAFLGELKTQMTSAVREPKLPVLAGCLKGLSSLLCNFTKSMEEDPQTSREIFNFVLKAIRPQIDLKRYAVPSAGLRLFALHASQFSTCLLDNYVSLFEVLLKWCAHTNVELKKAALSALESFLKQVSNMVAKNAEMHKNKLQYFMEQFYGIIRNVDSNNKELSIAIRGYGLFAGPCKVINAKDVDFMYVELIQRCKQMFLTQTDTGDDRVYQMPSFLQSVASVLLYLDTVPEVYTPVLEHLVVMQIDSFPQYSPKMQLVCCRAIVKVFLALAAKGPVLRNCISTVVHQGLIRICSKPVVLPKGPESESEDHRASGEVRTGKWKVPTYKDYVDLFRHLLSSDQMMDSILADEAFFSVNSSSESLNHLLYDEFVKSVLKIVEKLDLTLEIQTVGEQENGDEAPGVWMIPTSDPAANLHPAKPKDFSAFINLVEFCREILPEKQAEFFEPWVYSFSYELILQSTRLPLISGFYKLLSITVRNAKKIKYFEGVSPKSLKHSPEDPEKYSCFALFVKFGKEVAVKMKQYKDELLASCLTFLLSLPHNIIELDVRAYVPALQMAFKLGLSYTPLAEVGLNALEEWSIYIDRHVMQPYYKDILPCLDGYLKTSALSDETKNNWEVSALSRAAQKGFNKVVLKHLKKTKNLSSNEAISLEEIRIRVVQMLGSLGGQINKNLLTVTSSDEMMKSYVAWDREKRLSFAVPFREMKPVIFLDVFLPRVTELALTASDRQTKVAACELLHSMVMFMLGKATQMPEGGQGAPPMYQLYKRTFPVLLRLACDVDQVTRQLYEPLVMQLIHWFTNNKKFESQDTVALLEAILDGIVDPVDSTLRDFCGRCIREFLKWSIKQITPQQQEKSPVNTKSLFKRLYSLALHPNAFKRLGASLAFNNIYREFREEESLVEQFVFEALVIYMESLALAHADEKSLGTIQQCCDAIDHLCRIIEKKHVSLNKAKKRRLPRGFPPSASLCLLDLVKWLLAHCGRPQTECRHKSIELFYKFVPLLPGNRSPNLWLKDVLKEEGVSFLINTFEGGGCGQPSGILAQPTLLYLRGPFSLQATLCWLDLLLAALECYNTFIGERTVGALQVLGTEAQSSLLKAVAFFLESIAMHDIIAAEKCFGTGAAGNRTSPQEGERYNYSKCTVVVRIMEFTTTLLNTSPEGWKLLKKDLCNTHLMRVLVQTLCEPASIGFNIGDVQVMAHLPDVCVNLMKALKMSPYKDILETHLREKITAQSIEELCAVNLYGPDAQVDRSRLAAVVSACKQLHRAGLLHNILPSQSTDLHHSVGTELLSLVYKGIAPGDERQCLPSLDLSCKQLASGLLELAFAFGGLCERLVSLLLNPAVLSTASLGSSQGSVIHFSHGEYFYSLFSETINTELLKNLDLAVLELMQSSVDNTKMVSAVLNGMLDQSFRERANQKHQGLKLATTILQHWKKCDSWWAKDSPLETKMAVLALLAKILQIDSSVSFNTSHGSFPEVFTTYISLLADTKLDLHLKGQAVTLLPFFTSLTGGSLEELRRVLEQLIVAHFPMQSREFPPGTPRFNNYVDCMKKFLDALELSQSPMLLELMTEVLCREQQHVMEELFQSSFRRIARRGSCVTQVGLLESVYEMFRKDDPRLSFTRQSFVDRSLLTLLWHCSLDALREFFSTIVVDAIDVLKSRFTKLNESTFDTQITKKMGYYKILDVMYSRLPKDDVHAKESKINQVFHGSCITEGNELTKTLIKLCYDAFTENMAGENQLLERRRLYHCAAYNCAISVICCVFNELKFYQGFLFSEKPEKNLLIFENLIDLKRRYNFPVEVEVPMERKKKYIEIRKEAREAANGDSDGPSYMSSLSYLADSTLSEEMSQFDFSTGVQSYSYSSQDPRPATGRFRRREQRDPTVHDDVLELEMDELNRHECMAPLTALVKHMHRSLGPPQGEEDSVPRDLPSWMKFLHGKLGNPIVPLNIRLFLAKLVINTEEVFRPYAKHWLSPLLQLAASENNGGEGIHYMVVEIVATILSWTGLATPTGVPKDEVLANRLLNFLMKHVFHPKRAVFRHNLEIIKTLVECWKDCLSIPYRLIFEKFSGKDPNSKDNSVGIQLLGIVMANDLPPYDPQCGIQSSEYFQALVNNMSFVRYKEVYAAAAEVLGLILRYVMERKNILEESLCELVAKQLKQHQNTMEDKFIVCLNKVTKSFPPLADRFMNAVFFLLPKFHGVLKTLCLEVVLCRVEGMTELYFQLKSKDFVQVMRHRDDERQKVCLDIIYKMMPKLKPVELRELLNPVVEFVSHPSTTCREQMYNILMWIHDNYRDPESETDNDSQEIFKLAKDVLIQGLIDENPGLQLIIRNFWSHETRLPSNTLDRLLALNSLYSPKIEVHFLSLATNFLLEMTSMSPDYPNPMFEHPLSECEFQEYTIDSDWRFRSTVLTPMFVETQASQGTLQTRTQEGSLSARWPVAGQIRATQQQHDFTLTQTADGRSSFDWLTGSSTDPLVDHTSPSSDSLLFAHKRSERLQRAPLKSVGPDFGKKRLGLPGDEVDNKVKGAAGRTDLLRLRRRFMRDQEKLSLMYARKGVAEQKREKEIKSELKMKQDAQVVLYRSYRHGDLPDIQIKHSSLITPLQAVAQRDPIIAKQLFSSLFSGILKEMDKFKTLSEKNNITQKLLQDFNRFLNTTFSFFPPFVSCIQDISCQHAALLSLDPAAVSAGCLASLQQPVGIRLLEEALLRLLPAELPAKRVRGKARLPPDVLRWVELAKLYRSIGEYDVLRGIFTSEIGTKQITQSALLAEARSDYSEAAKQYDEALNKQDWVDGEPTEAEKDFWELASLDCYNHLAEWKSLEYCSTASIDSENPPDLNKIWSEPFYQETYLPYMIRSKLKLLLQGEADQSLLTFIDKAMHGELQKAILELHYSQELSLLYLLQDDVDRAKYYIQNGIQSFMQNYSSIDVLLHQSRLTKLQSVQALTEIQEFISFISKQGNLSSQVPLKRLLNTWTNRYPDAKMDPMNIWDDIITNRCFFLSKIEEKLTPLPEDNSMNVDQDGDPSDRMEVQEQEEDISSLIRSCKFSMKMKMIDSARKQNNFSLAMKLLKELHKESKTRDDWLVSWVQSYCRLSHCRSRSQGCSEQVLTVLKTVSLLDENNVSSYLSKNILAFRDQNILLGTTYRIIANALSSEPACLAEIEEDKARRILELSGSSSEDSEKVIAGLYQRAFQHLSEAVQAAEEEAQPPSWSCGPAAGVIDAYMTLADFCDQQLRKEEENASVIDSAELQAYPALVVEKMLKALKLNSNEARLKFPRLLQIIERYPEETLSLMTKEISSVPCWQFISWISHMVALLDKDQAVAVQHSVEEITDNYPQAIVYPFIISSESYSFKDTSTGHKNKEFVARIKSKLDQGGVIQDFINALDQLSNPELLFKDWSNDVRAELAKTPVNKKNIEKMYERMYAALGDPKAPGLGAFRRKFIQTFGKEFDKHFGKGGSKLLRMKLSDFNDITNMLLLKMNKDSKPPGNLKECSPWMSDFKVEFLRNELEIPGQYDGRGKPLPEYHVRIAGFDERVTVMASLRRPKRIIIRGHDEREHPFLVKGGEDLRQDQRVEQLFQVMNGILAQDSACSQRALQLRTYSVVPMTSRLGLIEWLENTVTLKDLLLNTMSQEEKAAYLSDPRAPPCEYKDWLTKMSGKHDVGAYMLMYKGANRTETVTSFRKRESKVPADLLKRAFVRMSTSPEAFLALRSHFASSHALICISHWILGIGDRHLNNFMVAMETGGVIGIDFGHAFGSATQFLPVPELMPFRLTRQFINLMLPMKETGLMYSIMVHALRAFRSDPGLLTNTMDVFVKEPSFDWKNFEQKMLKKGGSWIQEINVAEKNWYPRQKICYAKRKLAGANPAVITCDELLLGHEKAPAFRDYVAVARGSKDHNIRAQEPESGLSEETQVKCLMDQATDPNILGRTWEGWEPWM

Take `O=C(CN1CCOCC1)Nc1ccc(-c2cccc3c(=O)cc(N4CCOCC4)oc23)cc1OCC1CC1`: the results for the IC50 in experiment [1] and in experiment [2] were 8 nM and 70 nM, respectively.

As to `CC1(COc2cc(-c3cccc4c(=O)cc(N5CCOCC5)oc34)ccc2NC(=O)CN2CCOCC2)COC1`, the concentration for half-maximal inhibition (IC50) in experiment [1] came out at 690 nM; in experiment [2], 300 nM.

Consider `COc1cc(-c2cccc3c(=O)cc(N4CCOCC4)oc23)ccc1NC(=O)CN1CCOCC1`, for which the IC50 in experiment [1] was determined as 290 nM; in experiment [2], 350 nM.

In the case of `O=C(CN1CCOCC1)Nc1ccc(-c2cccc3c(=O)cc(N4CCOCC4)oc23)cc1O`, the IC50 was 80 nM in experiment [1] and 430 nM in experiment [2].

In the case of `CCOc1cc(-c2cccc3c(=O)cc(N4CCOCC4)oc23)ccc1NC(=O)CN1CCOCC1`, the figures for the IC50 in experiment [1] and in experiment [2] were 280 nM and 470 nM, respectively.

`CC(C)Oc1cc(-c2cccc3c(=O)cc(N4CCOCC4)oc23)ccc1NC(=O)CN1CCOCC1`: the IC50 in experiment [1] was found to be 330 nM; in experiment [2], 290 nM.

`CC(C)COc1cc(-c2cccc3c(=O)cc(N4CCOCC4)oc23)ccc1NC(=O)CN1CCOCC1`: the half-maximal inhibitory concentration (IC50) in experiment [1] stood at 180 nM; in experiment [2], 150 nM.

As to `C=CCOc1cc(-c2cccc3c(=O)cc(N4CCOCC4)oc23)ccc1NC(=O)CN1CCOCC1`, the figures for the IC50 in experiment [1] and in experiment [2] were 170 nM and 150 nM, respectively.

`NC(=O)COc1cc(-c2cccc3c(=O)cc(N4CCOCC4)oc23)ccc1NC(=O)CN1CCOCC1`: the concentration for half-maximal inhibition (IC50) in experiment [1] is 3300 nM; in experiment [2], 1100 nM.

As to `COCCOc1cc(-c2cccc3c(=O)cc(N4CCOCC4)oc23)ccc1NC(=O)CN1CCOCC1`, the values for the IC50 in experiment [1] and in experiment [2] were 2600 nM and 1500 nM, respectively.

On to `O=C(CN1CCOCC1)Nc1ccc(-c2cccc3c(=O)cc(N4CCOCC4)oc23)cc1OCCN1CCCC1`, for which the IC50 was over 10000 nM in experiment [1] and 4400 nM in experiment [2].

Consider `O=C(CN1CCOCC1)Nc1ccc(-c2cccc3c(=O)cc(N4CCOCC4)oc23)cc1OCC1CCC1`, for which the IC50 in experiment [1] amounted to 160 nM; in experiment [2] it was 290 nM.

Regarding `O=C(CN1CCOCC1)Nc1ccc(-c2cccc3c(=O)cc(N4CCOCC4)oc23)cc1OCCC1CC1`, the IC50 amounted to 500 nM in experiment [1] and 400 nM in experiment [2].

Turning to `CC1(COc2cc(-c3cccc4c(=O)cc(N5CCOCC5)oc34)ccc2NC(=O)CN2CCOCC2)CCC1`, the half-inhibitory concentration (IC50) in experiment [1] amounted to 110 nM; in experiment [2], 270 nM.

In the case of `O=C(CN1CCOCC1)Nc1ccc(-c2cccc3c(=O)cc(N4CCOCC4)oc23)cc1OCCO`, the 50% inhibitory concentration (IC50) stood at 1000 nM in experiment [1] and 1600 nM in experiment [2].

As for `NCCOc1cc(-c2cccc3c(=O)cc(N4CCOCC4)oc23)ccc1NC(=O)CN1CCOCC1`, the figures for the IC50 in experiment [1] and in experiment [2] were 12000 nM and 3000 nM, respectively.

Regarding `O=C(CN1CCOCC1)Nc1ccc(-c2cccc3c(=O)cc(N4CCOCC4)oc23)cc1-c1ccccc1`, the values for the Ratio with HeLa [3] and in the experiment with HeLa [4] were 8 and 11, respectively. For the same compound, inhibition in experiment [1] was half-maximal at 14 nM (IC50).

Turning to `O=c1cc(N2CCOCC2)oc2c(-c3cccc4c3sc3ccccc34)cccc12`, the IC50 in experiment [1] stood at 28 nM; in experiment [2], 130 nM.

`O=c1cc(N2CCOCC2)oc2c(-c3ccccc3)cccc12` [LY-294002] gave an IC50 in experiment [1] of 1300 nM.

One may read the IC50 as the concentration that inhibits the measured activity by half. Low readings indicate greater potency in that assay, high ones weaker potency in that assay.
